Laboratory results taken from patent US20220214354A1, “MEANS AND METHODS FOR SINGLE MOLECULE PEPTIDE SEQUENCING” (VIB VZW, priority 2019, published 2022).
Entries after “also recorded” stand apart in the source; their conditions may differ.

How the values were obtained:
[1] = NMR titration repeated with acetylated peptide; format: binding; conditions: same conditions as for NH2-Ala-Ala-Phe-amide; N-terminus acetylated
Protocol: The concept is based on the observation that 18-crown-6 ether derivatives can associate with protonated amines such as amino groups present at the N-termini of peptides or proteins (Yeh et al 2009 J Am Soc Mass Spectrom 20:385-393). To determine the exchange rate of the interaction between N-termini of polypeptides and 18-crown-6 ethers, an NMR study was performed. A model peptide (NH2-Ala-Ala-Phe-amide) was used in combination with the 18-crown-6 analogue triaza-trioxo-crown ether (TTC-ether; FIG. 3). The model peptide was designed with an N-terminal Ala to easily determine the shift of the N-terminal Ala methyl group upon binding to the TTC-ether. Solutions of the peptide were prepared in D2O/D-acetonitrile (3 ml/1 ml) with 10 mM D-acetic acid. A concentration of 100 μM peptide was maintained and mixed with varying concentrations of the TTC-ether. […]
A 2D-TOCSY (Total Correlation Spectroscopy) spectrum allows the identification of the position of the two methyl groups of both Ala residues around 1.25 ppm and 1.43 ppm. […] In order to retrieve information about the binding of the crown ether with the peptide, a titration was performed with different concentrations of the TTC-ether after which the shifts for the Ala methyl groups was measured at high resolution. Indeed, Ala-methyl shifts were observed when different TTC-ether/peptide ratios are measured (FIG. 4A). […]

[2] = test system: peptide array [AA1][AA2]GGNNGG; assay: Crown ether binding on PEPperPRINT peptide array (fluorescence intensity); conditions: crown ether 0.1 μg/μl in 0.1% triethanolamine in 50% ACN
Protocol: To study the binding of crown ethers to different peptides, a peptide array is used (PEPperPRINT array), containing an array of 400 peptides comprising peptides with all amino acid combinations at the first and second N-terminal position ([AA1][AA2]GGNNGG; four replicates of each peptide). After applying a fluorescently labeled crown ether (Cy5.5-dibenzo-18-crown-6), the relative affinity for all peptide substrates is determined by the fluorescence intensity on each peptide spot. The crown ether was applied on the peptide array at a concentration of 0.1 μg/μl in 0.1% triethanolamine in 50% ACN. After binding the array was washed two times for 10 sec using the same buffer. Finally, the fluorescence intensity was measured using a LI-COR Odyssey Imaging system. […] The large hydrophobic side chains of the second amino acid likely interact with the hydrophobic regions of the crown ether (crown ether benzene rings and/or cy5.5 fluorophore).

| Substance | interaction with TTC-ether (NMR shifts) [1] | relative binding (fluorescence intensity), variable second amino acid ([2]; peptides with N-terminal glycine) | relative binding (fluorescence intensity), variable N-terminal amino acid ([2]; peptides with leucine at the second position) |
| --- | --- | --- | --- |
| Acetyl-Ala-Ala-Phe-amide | did not measure any noticeable interaction |  |  |
| Cy5.5-dibenzo-18-crown-6 |  | strongest on the peptides GFGGNNGG, GLGGNNGG, GYGGNNGG, GIGGNNGG, GKGGNNGG and GWGGNNGG | strongest on N-terminal glycine; also recorded: weakest on N-terminal proline |
